≈ marks a conversion by molar mass, not a printed value. Where a SMILES comes first, the peptide text is derived from it. Bridges are numbered along the chain shown (N, C = ends). Roman numbers before positions name the chains, in order. [ ]: non-standard residue; d: D form. Tle = CC(C)(C)[C@H](N)C(=O)O; dDab = NCC[C@@H](N)C(=O)O; Dab = NCC[C@H](N)C(=O)O; Nva = CCC[C@H](N)C(=O)O; Abu = CC[C@H](N)C(=O)O; Dap = NC[C@H](N)C(=O)O
Columns and labels:
Format in all cases: cell-based
Escherichia coli 926415 = settings: 926415
Outline: (§1)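 MIC in μg/mL, read as absence of visible growth after 18-20 h incubation at 35° C, by standard CLSI microdilution. Peptides tested in two-fold serial dilution in cation-adjusted MH-II broth containing 0.002% (final) Polysorbate 80, against roughly 10^6 CFU/mL inocula.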

[1] = system: Klebsiella pneumoniae SSI #3010; settings: SSI #3010
Outline: as §1

[2] = system: Klebsiella pneumoniae 968733; settings: 968733
Outline: as §1

[3] = system: Acinetobacter baumannii DSM 30008; settings: DSM 30008
Outline: as §1

[4] = system: Enterobacter cloacae 848840; settings: 848840
Outline: as §1

[5] = system: Pseudomonas aeruginosa ATCC 27853; settings: ATCC 27853
Outline: as §1

[6] = system: Acinetobacter baumannii 872842; settings: 872842
Outline: as §1

[7] = system: Escherichia coli ATCC 25922; settings: ATCC 25922
Outline: as §1

[8] = system: human red blood cells (hRBC); assay: Hemolysis; settings: red cells of human, 1 h, 200
Outline: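 First, fresh human erythrocytes are washed in PBS; next, they are incubated at 20% (v/v) with compound at 200 μg/mL for 1 h at 37° C. Finally, centrifuged supernatants are diluted and OD540 is taken relative to the Triton X-100 lysis control.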

Compound | MIC (Escherichia coli 926415) | MIC [1] | MIC [2] | MIC [3] | MIC [4] | MIC [5] | MIC [6] | MIC [7] | Hemolysis at 200 μg/mL [8]
CC[C@H](C)[C@@H]1NC(=O)[C@H](CO)NC(=O)[C@H](Cc2c[nH]c3ccccc23)NC(=O)[C@H](CCN)NC(=O)[C@@H](CCN)NC(=O)[C@H](CCC(=O)N[C@@H](CCN)C(=O)N[C@H](C(=O)N[C@@H](CN)C(=O)N[C@H]2CCNC(=O)[C@H]([C@@H](C)O)NC(=O)[C@H](CCN)NC(=O)[C@H](CCN)NC(=O)[C@H](CC(C)C)NC(=O)[C@@H](CC(C)C)NC(=O)[C@H](CCN)NC2=O)[C@@H](C)O)NC(=O)[C@H](CO)NC(=O)[C@H](Cc2ccc(O)cc2)NC(=O)[C@@H](NC(=O)[C@@H](NC(C)=O)C(C)C)CSSC[C@@H](C(=O)N[C@@H](CO)C(N)=O)NC1=O [Ex. 253] (I: Ac-VCYSE[dDab][Dab]WSICS-NH2 / II: [Dab]T[Dap][Dab][Dab][dL]L[Dab][Dab]T; disulfide I:2-I:11; amide I:5-II:N; lactam II:4-II:C) | 0.0625 µg/mL (≈ 0.0259 µM) | 0.0625 µg/mL (≈ 0.0259 µM) | 0.0625 µg/mL (≈ 0.0259 µM) | 0.03125 µg/mL (≈ 0.013 µM) | 0.125 µg/mL (≈ 0.0518 µM) | 0.0625 µg/mL (≈ 0.0259 µM) | 0.03125 µg/mL (≈ 0.013 µM) | 0.03125 µg/mL (≈ 0.013 µM) | 2%
CC[C@@H]1NC(=O)[C@@H](CC(C)C)NC(=O)[C@H](CCN)NC(=O)[C@@H](NC(=O)[C@H](CN)NC(=O)[C@@H](NC(=O)[C@H](CCN)NC(=O)CC[C@@H]2NC(=O)[C@H]([C@@H](C)O)NC(=O)[C@H](Cc3ccc(O)cc3)NC(=O)[C@@H](NC(=O)[C@@H](NC(C)=O)C(C)C)CSSC[C@@H](C(=O)N[C@@H](CO)C(N)=O)NC(=O)[C@H](C(C)(C)C)NC(=O)[C@H](CO)NC(=O)[C@H](Cc3c[nH]c4ccccc34)NC(=O)[C@H](CCN)NC(=O)[C@@H](CCN)NC2=O)[C@@H](C)O)CCNC(=O)[C@H]([C@@H](C)O)NC(=O)[C@H](CCN)NC(=O)[C@H](CCN)NC1=O [Ex. 255] (I: Ac-VCYTE[dDab][Dab]WS[Tle]CS-NH2 / II: [Dab]T[Dap][Dab][Dab][dL][Abu][Dab][Dab]T; disulfide I:2-I:11; amide I:5-II:N; lactam II:4-II:C) | 0.0625 µg/mL (≈ 0.0261 µM) | 0.03125 µg/mL (≈ 0.013 µM) | 0.25 µg/mL (≈ 0.104 µM) | 0.03125 µg/mL (≈ 0.013 µM) | 0.0625 µg/mL (≈ 0.0261 µM) | 0.0625 µg/mL (≈ 0.0261 µM) | 0.125 µg/mL (≈ 0.0521 µM) | 0.0625 µg/mL (≈ 0.0261 µM) | 1%
CC[C@@H]1NC(=O)[C@@H](CC(C)C)NC(=O)[C@H](CCN)NC(=O)[C@@H](NC(=O)[C@H](CN)NC(=O)[C@@H](NC(=O)[C@H](CCN)NC(=O)CC[C@@H]2NC(=O)[C@H](CO)NC(=O)[C@H](Cc3ccc(O)cc3)NC(=O)[C@@H](NC(=O)[C@@H](NC(C)=O)C(C)C)CSSC[C@@H](C(=O)N[C@H](C(N)=O)[C@@H](C)O)NC(=O)[C@H](C(C)(C)C)NC(=O)[C@H](CO)NC(=O)[C@H](Cc3c[nH]c4ccccc34)NC(=O)[C@H](CCN)NC(=O)[C@@H](CCN)NC2=O)[C@@H](C)O)CCNC(=O)[C@H]([C@@H](C)O)NC(=O)[C@H](CCN)NC(=O)[C@H](CCN)NC1=O [Ex. 256] (I: Ac-VCYSE[dDab][Dab]WS[Tle]CT-NH2 / II: [Dab]T[Dap][Dab][Dab][dL][Abu][Dab][Dab]T; disulfide I:2-I:11; amide I:5-II:N; lactam II:4-II:C) | 0.0625 µg/mL (≈ 0.0261 µM) | 0.03125 µg/mL (≈ 0.013 µM) | 0.0625 µg/mL (≈ 0.0261 µM) | 0.03125 µg/mL (≈ 0.013 µM) | 0.0625 µg/mL (≈ 0.0261 µM) | 0.0625 µg/mL (≈ 0.0261 µM) | 0.03125 µg/mL (≈ 0.013 µM) | 0.03125 µg/mL (≈ 0.013 µM) | 1%
CC(=O)N[C@H](C(=O)N[C@H]1CSSC[C@@H](C(=O)N[C@@H](CO)C(N)=O)NC(=O)[C@H](C(C)(C)C)NC(=O)[C@H](CO)NC(=O)[C@H](Cc2c[nH]c3ccccc23)NC(=O)[C@H](CCN)NC(=O)[C@@H](CCN)NC(=O)[C@H](CCC(=O)N[C@@H](CCN)C(=O)N[C@H](C(=O)N[C@@H](CN)C(=O)N[C@H]2CCNC(=O)[C@H]([C@@H](C)O)NC(=O)[C@H](CCN)NC(=O)[C@H](CCN)NC(=O)[C@H]([C@@H](C)O)NC(=O)[C@@H](CC(C)C)NC(=O)[C@H](CCN)NC2=O)[C@@H](C)O)NC(=O)[C@H]([C@@H](C)O)NC(=O)[C@H](Cc2ccc(O)cc2)NC1=O)C(C)C [Ex. 262] (I: Ac-VCYTE[dDab][Dab]WS[Tle]CS-NH2 / II: [Dab]T[Dap][Dab][Dab][dL]T[Dab][Dab]T; disulfide I:2-I:11; amide I:5-II:N; lactam II:4-II:C) | 0.25 µg/mL (≈ 0.104 µM) | 0.03125 µg/mL (≈ 0.0129 µM) | 0.25 µg/mL (≈ 0.104 µM) | 0.0625 µg/mL (≈ 0.0259 µM) | 0.0625 µg/mL (≈ 0.0259 µM) | 0.125 µg/mL (≈ 0.0518 µM) | 0.0625 µg/mL (≈ 0.0259 µM) | 0.03125 µg/mL (≈ 0.0129 µM) | 1%
CC(=O)N[C@H](C(=O)N[C@H]1CSSC[C@@H](C(=O)N[C@H](C(N)=O)[C@@H](C)O)NC(=O)[C@H](C(C)(C)C)NC(=O)[C@H](CO)NC(=O)[C@H](Cc2c[nH]c3ccccc23)NC(=O)[C@H](CCN)NC(=O)[C@@H](CCN)NC(=O)[C@H](CCC(=O)N[C@@H](CCN)C(=O)N[C@H](C(=O)N[C@@H](CN)C(=O)N[C@H]2CCNC(=O)[C@H]([C@@H](C)O)NC(=O)[C@H](CCN)NC(=O)[C@H](CCN)NC(=O)[C@H]([C@@H](C)O)NC(=O)[C@@H](CC(C)C)NC(=O)[C@H](CCN)NC2=O)[C@@H](C)O)NC(=O)[C@H]([C@@H](C)O)NC(=O)[C@H](Cc2ccc(O)cc2)NC1=O)C(C)C [Ex. 263] (I: Ac-VCYTE[dDab][Dab]WS[Tle]CT-NH2 / II: [Dab]T[Dap][Dab][Dab][dL]T[Dab][Dab]T; disulfide I:2-I:11; amide I:5-II:N; lactam II:4-II:C) | 0.125 µg/mL (≈ 0.0515 µM) | 0.03125 µg/mL (≈ 0.0129 µM) | 0.25 µg/mL (≈ 0.103 µM) | 0.03125 µg/mL (≈ 0.0129 µM) | 0.125 µg/mL (≈ 0.0515 µM) | 0.125 µg/mL (≈ 0.0515 µM) | 0.0625 µg/mL (≈ 0.0257 µM) | 0.03125 µg/mL (≈ 0.0129 µM) | 1%
CCC[C@@H]1NC(=O)[C@H](CO)NC(=O)[C@H](Cc2c[nH]c3ccccc23)NC(=O)[C@H](CCN)NC(=O)[C@@H](CCN)NC(=O)[C@H](CCC(=O)N[C@@H](CCN)C(=O)N[C@H](C(=O)N[C@@H](CN)C(=O)N[C@H]2CCNC(=O)[C@H]([C@@H](C)O)NC(=O)[C@H](CCN)NC(=O)[C@H](CCN)NC(=O)[C@H](CC(C)C)NC(=O)[C@@H](CC(C)C)NC(=O)[C@H](CCN)NC2=O)[C@@H](C)O)NC(=O)[C@H](CO)NC(=O)[C@H](Cc2ccc(O)cc2)NC(=O)[C@@H](NC(=O)[C@@H](NC(C)=O)C(C)C)CSSC[C@@H](C(=O)N[C@@H](CO)C(N)=O)NC1=O [Ex. 264] (I: Ac-VCYSE[dDab][Dab]WS[Nva]CS-NH2 / II: [Dab]T[Dap][Dab][Dab][dL]L[Dab][Dab]T; disulfide I:2-I:11; amide I:5-II:N; lactam II:4-II:C) | 0.125 µg/mL (≈ 0.0521 µM) | 0.125 µg/mL (≈ 0.0521 µM) | 0.125 µg/mL (≈ 0.0521 µM) | 0.0625 µg/mL (≈ 0.0261 µM) | 0.5 µg/mL (≈ 0.208 µM) | 0.25 µg/mL (≈ 0.104 µM) | 0.0625 µg/mL (≈ 0.0261 µM) | 0.03125 µg/mL (≈ 0.013 µM) | <1%
